What all share (assay): CXCR6 receptor antagonists, dose response, cell-based, beta-arrestin, DiscoveRx, APJ panel, uHTS hits (AID 624129)
Experiment [1] deals with Apelin receptor (Homo sapiens) (UniProt P35414). To be noted: CXCR6 beta-arrestin (DiscoveRx) antagonist cell assay, APJ.
Experiment [2] addresses Beta-galactosidase (Escherichia coli) (UniProt Q8VNN2). To be noted: CXCR6 beta-arrestin (DiscoveRx) antagonist cell assay, b-galactosidase.
The target of experiment [3] is C-C chemokine receptor type 6 (Homo sapiens) (UniProt P51684). To be noted: CXCR6 beta-arrestin (DiscoveRx) antagonist cell assay.
In experiment [4] the target is C-X-C chemokine receptor type 6 (Homo sapiens) (UniProt O00574). To be noted: CXCR6 beta-arrestin (DiscoveRx) antagonist cell assay; for inhibition: CXCR6, run 1, dose range 2, at 80 µM (top of the series).
Setting [5] is: dose range 1, mean IC50 across replicates.
The mark [6] stands for this setting: CCR6, dose range 1, mean IC50 across replicates.
The mark [7] stands for this setting: CXCR6, dose range 1, mean IC50 across replicates.

The source made the active and inactive calls. No rule for the calls is given here. A value given as a limit tells only on which side of the number the result lay.

Chain of Beta-galactosidase (Escherichia coli) (Q8VNN2 whole entry, looked up): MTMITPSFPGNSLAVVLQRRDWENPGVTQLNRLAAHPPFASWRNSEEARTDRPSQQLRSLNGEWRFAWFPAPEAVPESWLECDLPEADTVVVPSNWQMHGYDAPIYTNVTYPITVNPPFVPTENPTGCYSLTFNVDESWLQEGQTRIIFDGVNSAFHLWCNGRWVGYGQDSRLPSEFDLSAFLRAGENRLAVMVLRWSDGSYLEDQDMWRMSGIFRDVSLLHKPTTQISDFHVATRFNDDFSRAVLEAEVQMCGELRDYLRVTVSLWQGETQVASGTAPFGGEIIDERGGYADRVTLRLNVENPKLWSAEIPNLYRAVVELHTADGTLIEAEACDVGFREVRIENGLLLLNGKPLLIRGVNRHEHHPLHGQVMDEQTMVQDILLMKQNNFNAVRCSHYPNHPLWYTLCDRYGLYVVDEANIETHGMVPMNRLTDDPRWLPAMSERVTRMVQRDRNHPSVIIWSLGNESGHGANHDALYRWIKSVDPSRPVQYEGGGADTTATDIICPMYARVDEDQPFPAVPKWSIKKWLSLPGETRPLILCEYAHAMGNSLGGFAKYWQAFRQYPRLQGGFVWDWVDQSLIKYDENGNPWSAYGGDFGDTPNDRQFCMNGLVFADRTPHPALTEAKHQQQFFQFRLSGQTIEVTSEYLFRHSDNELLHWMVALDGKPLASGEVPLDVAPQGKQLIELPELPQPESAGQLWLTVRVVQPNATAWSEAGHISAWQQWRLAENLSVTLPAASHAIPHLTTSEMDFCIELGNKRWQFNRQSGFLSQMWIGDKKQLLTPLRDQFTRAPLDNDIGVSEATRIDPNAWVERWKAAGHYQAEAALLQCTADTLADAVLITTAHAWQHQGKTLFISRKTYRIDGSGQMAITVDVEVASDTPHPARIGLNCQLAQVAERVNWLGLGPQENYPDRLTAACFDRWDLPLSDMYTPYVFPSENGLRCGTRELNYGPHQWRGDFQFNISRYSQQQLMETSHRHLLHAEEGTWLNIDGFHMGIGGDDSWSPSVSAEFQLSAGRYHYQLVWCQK
Chain of C-X-C chemokine receptor type 6 (Homo sapiens) (O00574 whole entry, looked up): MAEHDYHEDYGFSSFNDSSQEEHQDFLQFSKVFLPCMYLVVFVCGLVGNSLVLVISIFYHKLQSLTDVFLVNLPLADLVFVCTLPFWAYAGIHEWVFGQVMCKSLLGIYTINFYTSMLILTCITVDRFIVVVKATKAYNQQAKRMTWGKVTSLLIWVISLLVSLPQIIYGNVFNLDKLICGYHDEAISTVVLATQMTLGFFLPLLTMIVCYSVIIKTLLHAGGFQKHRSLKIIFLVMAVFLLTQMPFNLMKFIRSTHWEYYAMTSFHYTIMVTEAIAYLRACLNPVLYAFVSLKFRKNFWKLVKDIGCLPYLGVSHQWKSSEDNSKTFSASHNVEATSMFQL

By IC50 is commonly meant the concentration at which inhibition is half-maximal. In general, inhibition refers to the change of the read-out against control, counted positive when it falls. Regarding `CCCC1CCC(=NNC(=S)NCCc2ccccc2)CC1` (stereo unspecified), the half-inhibitory concentration (IC50) in experiment [1] (setting [5]) was over 80 µM; in experiment [1] (run 2, dose range 1) it was over 80 µM; in experiment [1] (run 3, dose range 1) it was over 80 µM; in experiment [2] (dose range 1), > 80 µM (inactive); in experiment [2] (setting [5]), over 80 µM; in experiment [3] (setting [6]) it was over 80 µM. In addition, the IC50 in experiment [3] (CCR6, run 2, dose range 1) is over 80 µM; in experiment [4] (CXCR6, dose range 1), > 80 µM (inactive); in experiment [4] (setting [7]) it was over 80 µM; in experiment [4] (CXCR6, run 2, dose range 1), over 80 µM. The inhibition in experiment [4] is -19%.
`CCCOc1cccc(-c2cc(C(=O)N/N=C/c3ccccn3)c3ccccc3n2)c1`: the IC50 in experiment [1] (dose range 1) was 5.48 µM; in experiment [1] (setting [5]), 7.37 µM; in experiment [1] (run 2, dose range 1), 9.25 µM; in experiment [1] (run 3, dose range 1) it was over 80 µM; in experiment [2] (dose range 1), > 80 µM (inactive); in experiment [2] (setting [5]) it was over 80 µM. Besides, the IC50 was 2.7 µM in experiment [3] (CCR6, dose range 1); 3.67 µM in experiment [3] (setting [6]); 4.63 µM in experiment [3] (CCR6, run 2, dose range 1); 9.05 µM in experiment [4] (CXCR6, dose range 1); 8.66 µM in experiment [4] (setting [7]); 4.31 µM in experiment [4] (CXCR6, run 1, dose range 2). Besides, the IC50 in experiment [4] (CXCR6, run 2, dose range 1) worked out at 14.5 µM; in experiment [4] (CXCR6, run 2, dose range 2) it was 6.79 µM.
`CCCCOc1ccc(C(=O)NNC(=S)NC(=O)CC)cc1`: the IC50 in experiment [1] (dose range 1) was 8.68 µM; in experiment [1] (setting [5]), 15.4 µM; in experiment [1] (run 2, dose range 1), 10.6 µM; in experiment [1] (run 3, dose range 1), 27.1 µM; in experiment [2] (dose range 1), > 80 µM (inactive); in experiment [2] (setting [5]), over 80 µM. Further, the half-inhibitory concentration (IC50) in experiment [3] (CCR6, dose range 1) was 7.58 µM; in experiment [3] (setting [6]), 8.35 µM; in experiment [3] (CCR6, run 2, dose range 1), 9.11 µM; in experiment [4] (CXCR6, dose range 1) it was 7.96 µM; in experiment [4] (setting [7]), 10.4 µM; in experiment [4] (CXCR6, run 1, dose range 2), 7.49 µM. In addition, the IC50 in experiment [4] (CXCR6, run 2, dose range 1) worked out at 16 µM; in experiment [4] (CXCR6, run 2, dose range 2), 10 µM.
As to `C/C(=N\NC(=O)C(c1ccccc1)c1ccccc1)c1ccccn1`, the concentration for half-maximal inhibition (IC50) in experiment [1] (dose range 1) was 7.16 µM; in experiment [1] (setting [5]), 12 µM; in experiment [1] (run 2, dose range 1), 9.32 µM; in experiment [1] (run 3, dose range 1) it was 19.6 µM; in experiment [2] (dose range 1) it was > 80 µM (inactive); in experiment [2] (setting [5]), over 80 µM. The IC50 is 1.99 µM in experiment [3] (CCR6, dose range 1); 2.25 µM in experiment [3] (setting [6]); 2.52 µM in experiment [3] (CCR6, run 2, dose range 1); 3.04 µM in experiment [4] (CXCR6, dose range 1); 4.66 µM in experiment [4] (setting [7]); 2.25 µM in experiment [4] (CXCR6, run 1, dose range 2). Moreover, the half-inhibitory concentration (IC50) in experiment [4] (CXCR6, run 2, dose range 1) is 10.9 µM; in experiment [4] (CXCR6, run 2, dose range 2) it was 2.44 µM.
Take `C=CS(=O)(=O)c1ccc(Oc2ccc(S(=O)(=O)C=C)cc2)cc1`: the concentration for half-maximal inhibition (IC50) in experiment [1] (dose range 1) was 13.1 µM; in experiment [1] (setting [5]), 12.2 µM; in experiment [1] (run 2, dose range 1), 9.91 µM; in experiment [1] (run 3, dose range 1) it was 13.7 µM; in experiment [2] (dose range 1), > 80 µM (inactive); in experiment [2] (setting [5]) it was over 80 µM. Further, the half-inhibitory concentration (IC50) in experiment [3] (CCR6, dose range 1) was 7.57 µM; in experiment [3] (setting [6]) it was 7.23 µM; in experiment [3] (CCR6, run 2, dose range 1) it was 6.88 µM; in experiment [4] (CXCR6, dose range 1), 10.2 µM; in experiment [4] (setting [7]) it was 10.8 µM; in experiment [4] (CXCR6, run 1, dose range 2) it was 8.79 µM. The IC50 stood at 12.2 µM in experiment [4] (CXCR6, run 2, dose range 1) and 11.9 µM in experiment [4] (CXCR6, run 2, dose range 2).
`CCOc1ccc(N(CC(=O)N/N=C/c2ccccn2)S(=O)(=O)c2ccc(Cl)cc2)cc1`: the half-inhibitory concentration (IC50) in experiment [1] (dose range 1) is 14.4 µM; in experiment [1] (setting [5]) it was 14.2 µM; in experiment [1] (run 2, dose range 1), over 80 µM; in experiment [1] (run 3, dose range 1), 13.9 µM; in experiment [2] (dose range 1), > 80 µM (inactive); in experiment [2] (setting [5]) it was over 80 µM. The half-inhibitory concentration (IC50) in experiment [3] (CCR6, dose range 1) is 11.4 µM; in experiment [3] (setting [6]), 12.7 µM; in experiment [3] (CCR6, run 2, dose range 1), 13.9 µM; in experiment [4] (setting [7]) it was 27.1 µM; in experiment [4] (CXCR6, run 1, dose range 2), 10.4 µM; in experiment [4] (CXCR6, run 2, dose range 1) it was 61.1 µM. Also, in experiment [4] (CXCR6, run 2, dose range 2), the IC50 came out at 11.9 µM. Moreover, the IC50 entry in experiment [4] (CXCR6, dose range 1) was “inactive”.
For `C/C(=N\NC(=O)Cc1ccc(Cl)cc1)c1ccccn1`, the IC50 in experiment [1] (dose range 1) was 3.41 µM; in experiment [1] (setting [5]) it was 14 µM; in experiment [1] (run 2, dose range 1), 4.94 µM; in experiment [1] (run 3, dose range 1), 33.7 µM; in experiment [2] (dose range 1) it was > 80 µM (inactive); in experiment [2] (setting [5]), over 80 µM. Further, the IC50 in experiment [3] (CCR6, dose range 1) is 3.22 µM; in experiment [3] (setting [6]) it was 3.45 µM; in experiment [3] (CCR6, run 2, dose range 1), 3.69 µM; in experiment [4] (CXCR6, dose range 1) it was 3.73 µM; in experiment [4] (setting [7]) it was 3.75 µM; in experiment [4] (CXCR6, run 1, dose range 2) it was 3.29 µM. The IC50 was determined as 4.52 µM in experiment [4] (CXCR6, run 2, dose range 1) and 3.45 µM in experiment [4] (CXCR6, run 2, dose range 2).
For `O=[N+]([O-])c1ccc(S(=O)(=O)c2ccccc2)nc1`, the half-inhibitory concentration (IC50) in experiment [1] (setting [5]) is over 80 µM; in experiment [1] (run 2, dose range 1), over 80 µM; in experiment [1] (run 3, dose range 1) it was over 80 µM; in experiment [2] (dose range 1) it was > 80 µM (inactive); in experiment [2] (setting [5]), over 80 µM; in experiment [3] (setting [6]), over 80 µM. Moreover, the concentration for half-maximal inhibition (IC50) in experiment [3] (CCR6, run 2, dose range 1) was over 80 µM; in experiment [4] (CXCR6, dose range 1) it was > 80 µM (inactive); in experiment [4] (setting [7]), over 80 µM; in experiment [4] (CXCR6, run 2, dose range 1) it was over 80 µM. Further, the inhibition in experiment [4] is 19.8%.
Consider `CCC(=O)OCOc1ccc(/C=C2/CCC(CN(C)C)C2=O)cc1` (stereo unspecified), for which the IC50 was 17.2 µM in experiment [1] (dose range 1); 16.8 µM in experiment [1] (setting [5]); 15.2 µM in experiment [1] (run 2, dose range 1); 17.9 µM in experiment [1] (run 3, dose range 1); > 80 µM (inactive) in experiment [2] (dose range 1); over 80 µM in experiment [2] (setting [5]). Further, the IC50 in experiment [3] (CCR6, dose range 1) is 10.3 µM; in experiment [3] (setting [6]), 11.1 µM; in experiment [3] (CCR6, run 2, dose range 1), 11.9 µM; in experiment [4] (setting [7]), 12.6 µM; in experiment [4] (CXCR6, run 2, dose range 1), 10.2 µM. Further, the IC50 result in experiment [4] (CXCR6, dose range 1) is “inactive”. In addition, the inhibition in experiment [4] was 124%.
Turning to `N=C1S/C(=C\c2ccco2)C(=O)N1c1nccs1`, the IC50 is 8.43 µM in experiment [1] (dose range 1); 10.5 µM in experiment [1] (setting [5]); 12.4 µM in experiment [1] (run 2, dose range 1); 10.6 µM in experiment [1] (run 3, dose range 1); > 80 µM (inactive) in experiment [2] (dose range 1); over 80 µM in experiment [2] (setting [5]). The IC50 in experiment [3] (CCR6, dose range 1) was 8.13 µM; in experiment [3] (setting [6]) it was 8.52 µM; in experiment [3] (CCR6, run 2, dose range 1) it was 8.91 µM; in experiment [4] (CXCR6, dose range 1), 10.4 µM; in experiment [4] (setting [7]) it was 8.97 µM; in experiment [4] (CXCR6, run 1, dose range 2) it was 6.4 µM. The IC50 in experiment [4] (CXCR6, run 2, dose range 1) came out at 9.6 µM; in experiment [4] (CXCR6, run 2, dose range 2), 9.45 µM.
With `NC(=S)N/N=C/c1ncc(C(F)(F)F)cc1Cl`, the IC50 in experiment [1] (dose range 1) is 6.82 µM; in experiment [1] (setting [5]), 7.73 µM; in experiment [1] (run 2, dose range 1), 8.7 µM; in experiment [1] (run 3, dose range 1), 7.68 µM; in experiment [2] (dose range 1), > 80 µM (inactive); in experiment [2] (setting [5]), over 80 µM. For the same compound, the concentration for half-maximal inhibition (IC50) in experiment [3] (CCR6, dose range 1) is 6 µM; in experiment [3] (setting [6]), 6.7 µM; in experiment [3] (CCR6, run 2, dose range 1), 7.41 µM; in experiment [4] (CXCR6, dose range 1), 7.01 µM; in experiment [4] (setting [7]), 5.44 µM; in experiment [4] (CXCR6, run 1, dose range 2), 3.67 µM. In addition, the IC50 amounted to 6.86 µM in experiment [4] (CXCR6, run 2, dose range 1) and 4.23 µM in experiment [4] (CXCR6, run 2, dose range 2).
As to `COc1ccc(OC)c(NC(=O)c2nc(S(=O)(=O)Cc3ccccc3)ncc2Cl)c1`, the 50% inhibitory concentration (IC50) in experiment [1] (dose range 1) was 13.7 µM; in experiment [1] (setting [5]), 12.6 µM; in experiment [1] (run 2, dose range 1), 11.4 µM; in experiment [1] (run 3, dose range 1), over 80 µM; in experiment [2] (dose range 1), > 80 µM (inactive); in experiment [2] (setting [5]), over 80 µM. The 50% inhibitory concentration (IC50) in experiment [3] (CCR6, dose range 1) is 7.57 µM; in experiment [3] (setting [6]), 7.24 µM; in experiment [3] (CCR6, run 2, dose range 1), 6.9 µM; in experiment [4] (CXCR6, dose range 1) it was 7.68 µM; in experiment [4] (setting [7]), 8.6 µM; in experiment [4] (CXCR6, run 1, dose range 2) it was 8.96 µM. In addition, the half-maximal inhibitory concentration (IC50) in experiment [4] (CXCR6, run 2, dose range 1) is 8.78 µM; in experiment [4] (CXCR6, run 2, dose range 2) it was 8.98 µM.

Source of the values: PubChem BioAssay AID624129 (Sanford-Burnham Center for Chemical Genomics, 2012).
